Where a name gives a salt, the structure may show the parent alone.
Assays:
Format in all cases: cell-based
[1] = test system: human B cell lymphoblastoid cell line Ramos; assay: Caspase cascade activation (EC50), Ramos; conditions: Homo sapiens, RAMOS cells, read-out: caspase potency (EC50) RAMOS
Description: (§1) Human breast cancer cell lines T-47D, human hepatocellular carcinoma cell line SNU398, human colon carcinoma cell line HCT116, human cancer cell line H1299, human Burkitt's lymphoma cell line Namalwa, human lymphoma cell line Raji, and human B cell lymphoblastoid cell line Ramos were grown according to media component mixtures designated by American Type Culture Collection+10% FCS (Invitrogen Corporation), in a 5% CO2-95% humidity incubator at 37° C. T-47D and H1299 cells were maintained at a cell density between 50 and 80% confluency at a cell density of 0.1 to 0.6×10^6 cells/mL. Cells were harvested at 600×g and resuspended at 0.65×10^6 cells/mL into appropriate media+10% FCS. An aliquot of 22.5 μL of cells was added to a well of a 384-well microtiter plate containing 2.5 μL of a 10% DMSO in RPMI-1640 media solution containing 0.16 to 100 μM of 3-(2-chlorophenyl)-6-(3,4-methylenedioxyphenyl)-7H-[1,2,4]triazolo[3,4-b][1,3,4]thiadiazine or other test compound (0.016 to 10 μM final). An aliquot of 22.5 μL of cells was added to a well of a 384-well microtiter plate containing 2.5 μL of a 10% DMSO in RPMI-1640 media solution without test compound as the control sample. The samples were mixed by agitation and then incubated at 37° C. for 48 h in a 5% CO2-95% humidity incubator. After incubation, the samples were removed from the incubator and 25 μL of a solution containing 14 μM of N—(Ac-DEVD)-N′-ethoxycarbonyl-R110 (SEQ ID No.:1) fluorogenic substrate (Cytovia, Inc.; WO99/18856), 20% sucrose (Sigma), 20 mM DTT (Sigma), 200 mM NaCl (Sigma), 40 mM Na PIPES buffer pH 7.2 (Sigma), and 500 μg/mL lysolecithin (Calbiochem) was added. The samples were mixed by agitation and incubated at room temperature. Using a fluorescent plate reader (Model SPECTRAfluor Plus, Tecan), an initial reading (T=0) was made approximately 1-2 min after addition of the substrate solution, employing excitation at 485 nm and emission at 530 nm, to determine the background fluorescence of the control sample. After the 3 h incubation, the samples were read for fluorescence as above (T=3 h). Calculation: The Relative Fluorescence Unit values (RFU) were used to calculate the sample readings as follows: RFU(T=3H)−Control RFU(T=0)=Net RFU(T=3h) The activity of caspase cascade activation was determined by the ratio of the net RFU value for 3-(2-chlorophenyl)-6-(3,4-methylenedioxyphenyl)-7H-[1,2,4]triazolo[3,4-b][1,3,4]thiadiazine (Example P) or other test compound to that of control samples. The EC50 (nM) was determined by a sigmoidal dose-response calculation (Prism 3.0, GraphPad Software Inc.).

[2] = test system: human Burkitt's lymphoma cell line Namalwa; assay: Inhibition of cell proliferation (GI50), Namalwa; conditions: Homo sapiens, Burkitts lymphoma cell; Namalwa cells, 48 h, CellTiter-Glo
Description: (§2) Human breast cancer cell lines T-47D, human hepatocellular carcinoma cell line SNU398, human colon carcinoma cell line HCT116, human lung cancer cell line H1299, human leukemia cell line K562, human lymphoma cell line Raji, human B cell lymphoblastoid cell line Ramos, and human Burkitt's lymphoma cell line Namalwa were grown and harvested as in Example 100. An aliquot of […] of cells (4.4×10^4 cells/mL) was added to a well of a 96-well microtiter plate containing 5 μL of a 10% DMSO in RPMI-1640 media solution containing 10 nM to 100 μM of 3-(2-chlorophenyl)-6-(3,4-methylenedioxyphenyl)-7H-[1,2,4]triazolo[3,4-b][1,3,4]thiadiazine (1 nM to 10 μM final). An aliquot of 45 μL of cells was added to a well of a 96-well microtiter plate containing 5 μL of a 10% DMSO in RPMI-1640 media solution without compound as the control sample for maximal cell proliferation (LMax). The samples were mixed by agitation and then incubated at 37° C. for 48 h in a 5% CO2-95% humidity incubator. After incubation, the samples were removed from the incubator and 25 μL of CellTiter-Glo™ reagent (Promega) was added. The samples were mixed by agitation and incubated at room temperature for 10-15 min. Plates were then read using a luminescent plate reader (Model SPECTRAfluor Plus, Tecan) to give Ltest values.
(§3) The samples were mixed by agitation and then incubated at 37° C. for 0.5 h in a 5% CO2-95% humidity incubator. After incubation, the samples were removed from the incubator and 25 μL of CellTiter-Glo™ reagent (Promega) was added. The samples were mixed by agitation and incubated at […] 10-15 min at room temperature in a 5% CO2-95% humidity incubator. Fluorescence was read as above, (LStart) defining luminescence for initial cell number used as baseline in GI50 determinations.
(§4) Calculation: GI50 (dose for 50% inhibition of cell proliferation) is the concentration where [(Ltest−LStart)/(LMax−LStart)]=0.5.

[3] = test system: human Burkitt's lymphoma cell line Namalwa; assay: Caspase cascade activation (EC50), Namalwa; conditions: Homo sapiens, Burkitts lymphoma cell; Namalwa cells; caspase cascade activation; read-out: caspase potency (EC50) Namalwa
Method in brief: (§5)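 Test compound (0.016–10 μM final) is incubated with cells for 48 h at 37 °C. Caspase-3-like activity is measured by 3 h room-temperature cleavage of DEVD-R110 in PIPES pH 7.2 lysis buffer, with EC50 from sigmoidal fitting of background-corrected RFU relative to control.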

[4] = test system: human hepatocellular carcinoma cell line SNU398; assay: Caspase cascade activation (EC50), SNU398; conditions: Homo sapiens, SNU-398; SNU398 cells; caspase cascade activation; read-out: caspase potency (EC50) SNU398
Method in brief: as §5

[5] = test system: human B cell lymphoblastoid cell line Ramos; assay: Inhibition of cell proliferation (GI50), Ramos; conditions: Homo sapiens; Ramos cells, 48 h, CellTiter-Glo
Description: as §2, §3, §4

[6] = test system: human breast cancer cell line T-47D; assay: Caspase cascade activation (EC50), T-47D; conditions: Homo sapiens; T47D cells; caspase cascade activation; read-out: caspase potency (EC50) T47D
Method in brief: as §5

[7] = test system: human colon carcinoma cell line HCT116; assay: Inhibition of cell proliferation (GI50), HCT116; conditions: Homo sapiens; HCT 116 cells, 48 h, CellTiter-Glo
Description: as §2, §3, §4

[8] = test system: human leukemia cell line K562; assay: Inhibition of cell proliferation (GI50), K562; conditions: Homo sapiens; K562 cells, 48 h, CellTiter-Glo
Description: as §2, §3, §4

[9] = test system: human lymphoma cell line Raji; assay: Caspase cascade activation (EC50), Raji; conditions: Homo sapiens, RAJI cells, read-out: caspase potency (EC50) RAJI
Description: as §1

[10] = test system: human lymphoma cell line Raji; assay: Inhibition of cell proliferation (GI50), Raji; conditions: Homo sapiens; Raji cells, 48 h, CellTiter-Glo
Description: as §2, §3, §4

[11] = test system: human colon carcinoma cell line HCT116; assay: Caspase cascade activation (EC50), HCT116; conditions: Homo sapiens, HCT-116; HCT116 cells; caspase cascade activation; read-out: caspase potency (EC50) HCT116
Method in brief: as §5

[12] = test system: human cancer cell line H1299; assay: Caspase cascade activation (EC50), H1299; conditions: NCI-H1299, H1299 cells, read-out: caspase potency (EC50) H1299
Description: as §1

Row | SMILES | EC50 [1] | GI50 [2] | EC50 [3] | EC50 [4] | GI50 [5] | EC50 [6] | GI50 [7] | GI50 [8] | EC50 [9] | GI50 [10] | EC50 [11] | EC50 [12]
1 | CCN(CC)c1ccc(C2=Nn3c(nnc3-c3ccc(OC)cc3OC)SC2)cc1 [Example 27, 6-(4-Diethylaminophenyl)-3-(2,4-dimethoxyphenyl)-7H-[1,2,4]triazolo[3,4-b][1,3,4]thiadiazine] | 55 nM | 2 nM | 31 nM | 47 nM | 1 nM | 44 nM | 23 nM | 10 nM | 46 nM | 3 nM | 55 nM | 
2 | COc1ccc(-c2nnc3n2N=C(c2ccc(N=[N+]=[N-])cc2)CS3)cc1OC [Example 31, 6-(4-Azidophenyl)-3-(3,4-dimethoxyphenyl)-7H-[1,2,4]triazolo[3,4-b][1,3,4]thiadiazine] | 520 nM | 1470 nM | 544 nM | 619 nM | 503 nM | 2390 nM | 4250 nM | 581 nM | 534 nM | 6330 nM | 5550 nM | 
3 | CCOc1ccc(C2=Nn3c(nnc3-c3ccccc3Br)SC2)cc1 [Example A3] | 125 nM | 79 nM | 104 nM | 243 nM | 17 nM | 1080 nM | 361 nM | 41 nM | 268 nM | 103 nM | 314 nM | 
4 | COc1ccc(C2=Nn3c(nnc3-c3n[nH]c4c3CCC4)SC2)cc1 [Example V2] | 256 nM | 975 nM | 250 nM | 195 nM | 346 nM | 312 nM | 1130 nM | 400 nM | 444 nM | 1260 nM | 268 nM | 
5 | COc1cc(-c2nnc3n2N=C(c2ccc(C)cc2)CS3)cc(OC)c1O [Example 13, 3-(3,5-Dimethoxy-4-hydroxyphenyl)-6-(4-methylphenyl)-7H-[1,2,4]triazolo[3,4-b][1,3,4]thiadiazine hydrobromide] | 69 nM | 18 nM | 73 nM | 101 nM | 50 nM | 625 nM | 165 nM | 51 nM | 52 nM | 97 nM | 189 nM | 
6 | COc1cc(-c2nnc3n2N=C(c2ccccc2)CS3)cc(OC)c1OC [Example S1, 3-(3,4,5-Trimethoxyphenyl)-6-phenyl-7H-[1,2,4]triazolo[3,4-b][1,3,4]thiadiazine] | 316 nM |  | 313 nM | 226 nM |  | 323 nM |  |  | 619 nM |  | 284 nM | 1260 nM
7 | COc1ccc(-c2nnc3n2N=C(c2ccc4c(c2)OCO4)CS3)cc1 [J, 3-(4-Methoxyphenyl)-6-(3,4-methylenedioxyphenyl)-7H-[1,2,4]triazolo[3,4-b][1,3,4]thiadiazine] | > 1000 nM |  | > 10000 nM | 2550 nM |  | 3270 nM |  |  | > 1000 nM |  | > 10000 nM | 2930 nM
8 | COc1cccc(-c2nnc3n2N=C(c2ccc4c(c2)OCO4)CS3)c1 [Example A1, 3-(3-Methoxyphenyl)-6-(3,4-methylenedioxyphenyl)-7H-[1,2,4]triazolo[3,4-b][1,3,4]thiadiazine] | 447 nM |  | 426 nM | 390 nM |  | 500 nM |  |  | 507 nM |  | 546 nM | 2490 nM
9 | COc1ccc(-c2nnc3n2N=C(c2cc(OC)ccc2OC)CS3)cc1 [H, 3-(4-Methoxyphenyl)-6-(2,5-dimethoxyphenyl)-7H-[1,2,4]triazolo[3,4-b][1,3,4]thiadiazine] | 1270 nM |  | 1180 nM | 1230 nM |  | 2440 nM |  |  | 2330 nM |  | > 10000 nM | 2420 nM
10 | CCOc1ccc(-c2nnc3n2N=C(c2ccc4c(c2)OCO4)CS3)cc1 [Example H2, 3-(4-Ethoxyphenyl)-6-(3,4-methylenedioxyphenyl)-7H-[1,2,4]triazolo[3,4-b][1,3,4]thiadiazine] | 542 nM |  | > 1000 nM | > 1000 nM |  | > 1000 nM |  |  | > 1000 nM |  | > 1000 nM | > 1000 nM
11 | CCOc1ccc(C2=Nn3c(nnc3-c3cc(OC)c(OC)c(OC)c3)SC2)cc1 [Example T1, 3-(3,4,5-Trimethoxyphenyl)-6-(4-ethoxyphenyl)-7H-[1,2,4]triazolo[3,4-b][1,3,4]thiadiazine] | 498 nM |  | 510 nM | 519 nM |  | 2580 nM |  |  | 656 nM |  | > 10000 nM | 2580 nM
12 | CC(C)Oc1cccc(-c2nnc3n2N=C(c2ccc4c(c2)OCO4)CS3)c1 [Example R1, 3-(3-Isopropyloxyphenyl)-6-(3,4-methylenedioxyphenyl)-7H-[1,2,4]triazolo[3,4-b][1,3,4]thiadiazine] | > 1000 nM |  | > 1000 nM | 5600 nM |  | > 10000 nM |  |  | > 1000 nM |  | > 10000 nM | > 10000 nM
